The target of experiment [1] is T1, 14-3-3γ (Homo sapiens, UniProt P61981).
T1 construct: 14-3-3γ (UniProt P61981-1; residues 1–247); 8-His tag with TEV protease cleavage site (N); made in house; host or cells: E. coli C41 (DE3)
T1 sequence (P61981 1-247): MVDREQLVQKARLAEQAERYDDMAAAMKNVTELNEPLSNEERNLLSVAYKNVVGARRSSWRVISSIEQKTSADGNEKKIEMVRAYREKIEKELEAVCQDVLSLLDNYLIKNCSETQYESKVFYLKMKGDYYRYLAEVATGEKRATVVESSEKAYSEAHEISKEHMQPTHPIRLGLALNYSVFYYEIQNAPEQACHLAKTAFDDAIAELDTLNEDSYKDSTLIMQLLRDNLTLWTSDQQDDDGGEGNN
Description: SPR, PEAK peptides binding to immobilised 14-3-3γ. As to conditions: peptide analyte over amine-coupled 14-3-3γ (CM5); Biacore S200, HBS-TP pH 7.4, 20 °C; steady-state 1:1 fit; mean ± S.E.M.; read-out: SPR KD, 14-3-3γ (gamma). As to the method:
(§1) Purified […]3 was diluted to 5 μg ml^-1 in 10 mM sodium acetate pH 4.0 and amine coupled at 25 °C to a Series S CM5 sensor chip, in HBS-N running buffer (20 mM HEPES pH 7.4, 150 mM NaCl) to a final immobilization level of 1100-1400 response units (RU), followed by surface deactivation using 1 M ethanolamine. A blank activation/deactivation was used for the reference surface. […] Samples were injected in a multi-cycle run (flow rate 30 μl min^-1, contact time of 60 s, dissociation 120 s) without regeneration. Sensorgrams were double referenced, and steady-state binding data fitted using a 1:1 binding model using Biacore S200 Evaluation Software (Cytiva, v. 1.1). […] Representative sensorgrams and fitted dissociation constant (KD) values, depicted as mean ± S.E.M.
On the technique in general: In SPR one partner is held on a chip, and binding of the other changes the refractive index at the surface.

Experiment [2] concerns the target T2, 14-3-3ε (Homo sapiens, UniProt P62258).
T2 construct: 14-3-3ε (UniProt P62258-1; residues 1–255); 8-His tag with TEV protease cleavage site (N); made in house; host or cells: E. coli C41 (DE3)
T2 sequence (P62258 1-255): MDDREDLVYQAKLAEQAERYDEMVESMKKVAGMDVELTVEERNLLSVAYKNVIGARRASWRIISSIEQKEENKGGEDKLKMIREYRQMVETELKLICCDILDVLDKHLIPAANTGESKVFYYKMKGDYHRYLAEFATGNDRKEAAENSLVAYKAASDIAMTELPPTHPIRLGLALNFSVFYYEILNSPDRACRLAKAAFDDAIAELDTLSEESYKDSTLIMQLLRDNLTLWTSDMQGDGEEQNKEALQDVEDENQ
Description: SPR, PEAK tandem peptides binding to immobilised 14-3-3ε. Conditions: peptide analyte over amine-coupled 14-3-3ε (CM5); Biacore S200, HBS-TP pH 7.4, 20 °C; steady-state 1:1 fit; mean ± S.E.M.; read-out: SPR KD, 14-3-3ε (epsilon). As to the method: Purified […]3 was diluted to 5 μg ml^-1 in 10 mM sodium acetate pH 4.0 and amine coupled at 25 °C to a Series S CM5 sensor chip, in HBS-N running buffer (20 mM HEPES pH 7.4, 150 mM NaCl) to a final immobilization level of 1100-1400 response units (RU), followed by surface deactivation using 1 M ethanolamine. A blank activation/deactivation was used for the reference surface. […] PEAK PRM peptides: […] Samples were injected in a multi-cycle run (flow rate 30 μl min^-1, contact time of 60 s, dissociation 120 s) without regeneration. Sensorgrams were double referenced, and steady-state binding data fitted using a 1:1 binding model using Biacore S200 Evaluation Software (Cytiva, v. 1.1). […] Representative sensorgrams and fitted dissociation constant (KD) values, depicted as mean ± S.E.M.

Experiment [3] concerns the target T3, 14-3-3η (Homo sapiens, UniProt Q04917).
T3 construct: 14-3-3η (UniProt Q04917-1; residues 1–246); 8-His tag with TEV protease cleavage site (N); made in house; host or cells: E. coli C41 (DE3)
T3 sequence (Q04917 1-246): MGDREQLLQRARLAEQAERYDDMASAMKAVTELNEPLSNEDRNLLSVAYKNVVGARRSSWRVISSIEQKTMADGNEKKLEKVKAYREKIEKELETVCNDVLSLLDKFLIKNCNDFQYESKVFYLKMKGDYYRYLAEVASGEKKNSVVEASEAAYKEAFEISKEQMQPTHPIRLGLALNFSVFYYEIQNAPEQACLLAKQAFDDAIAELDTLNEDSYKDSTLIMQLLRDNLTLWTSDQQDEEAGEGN
Kind of experiment: SPR, PEAK tandem peptides binding to immobilised 14-3-3η. Conditions: peptide analyte over amine-coupled 14-3-3η (CM5); Biacore S200, HBS-TP pH 7.4, 20 °C; steady-state 1:1 fit; mean ± S.E.M.; read-out: SPR KD, 14-3-3η (eta). As to the method: as §1

The target of experiment [4] is T4, 14-3-3σ (Homo sapiens).
T4 construct: 14-3-3ς (UniProt P63104-1; residues 1–245); 8-His tag with TEV protease cleavage site (N); made in house; host or cells: E. coli C41 (DE3)
T4 sequence (P63104 whole entry, the tested form may be a part): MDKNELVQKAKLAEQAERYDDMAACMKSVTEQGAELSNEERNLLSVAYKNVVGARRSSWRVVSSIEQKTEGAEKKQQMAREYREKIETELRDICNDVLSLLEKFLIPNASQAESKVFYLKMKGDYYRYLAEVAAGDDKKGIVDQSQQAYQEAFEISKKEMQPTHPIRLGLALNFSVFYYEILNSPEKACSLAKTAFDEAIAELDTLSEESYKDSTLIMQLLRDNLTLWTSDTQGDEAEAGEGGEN
Kind of experiment: SPR, PEAK tandem peptides binding to immobilised 14-3-3σ. As to conditions: peptide analyte over amine-coupled 14-3-3σ (CM5); Biacore S200, HBS-TP pH 7.4, 20 °C; steady-state 1:1 fit; mean ± S.E.M.; read-out: SPR KD, 14-3-3σ (sigma). On the procedure:
as §1

In experiment [5] the target is Grb2^FL. As to conditions: isothermal titration calorimetry, shown previously; read-out: ITC KD, Grb2^FL; cited from earlier work. (In general: In ITC the heat of successive injections is recorded.)
Experiment [6] has as its system PEAK3 pY24 phosphorylation in MCF-10A cells. As to conditions: MCF-10A cells treated with inhibitor; cited from earlier work.
In experiment [7] the target is T5, CrkII^NSH3 (Homo sapiens, UniProt P46108).
T5 construct: CrkII^NSH3; UniProt P46108-1, residues 134–191; 8-His tag with TEV protease cleavage site (N); made in house; host or cells: E. coli C41 (DE3)
T5 sequence (P46108 134-191): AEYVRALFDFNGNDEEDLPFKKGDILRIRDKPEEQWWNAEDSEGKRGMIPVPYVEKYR
Kind of experiment: SPR, CrkII NSH3 binding to immobilised PEAK proteins. Conditions: read-out: CrkII NSH3 SPR KD; interactor as analyte over biotinylated PEAK protein captured with biotin CAPture kit; Biacore 8K+, HBS-TP, 20 °C; steady-state fit; mean ± SD (N = 2); read-out: CrkII-SH2 SPR KD. On the procedure:
(§2) SPR binding studies of PEAK PRM peptides to CrkII^NSH3 were performed using a Biacore S200 Instrument (Cytiva). Purified CrkII^NSH3 was diluted to 5 µg ml^−1 in 10 mM sodium acetate pH 4.0 and amine coupled at 25 °C to a Series S CM5 sensor chip, in HBS-N running buffer (20 mM HEPES pH 7.4, 150 mM NaCl) to a final immobilization level of 1100–1400 response units (RU), followed by surface deactivation using 1 M ethanolamine. A blank activation/deactivation was used for the reference surface. Peptide binding studies were performed at 20 °C in HBS-TP running buffer (20 mM HEPES pH 7.4, 150 mM NaCl, 1 mM TCEP, 0.005% (v/v) Tween-P20). […] Peptide stocks were further diluted to in running buffer to 10 or 20 µM and prepared as a 11-point concentration series (2-fold serial dilution, […] for PEAK PRM peptides, or 20 µM–20 nM for PEAK tandem motif peptides). Samples were injected in a multi-cycle run (flow rate 30 µl min^−1, contact time of 60 s, dissociation 120 s) without regeneration. Sensorgrams were double referenced, and steady-state binding data fitted using a 1:1 binding model using Biacore S200 Evaluation Software (Cytiva, v. 1.1).
(§3) SPR binding studies of PEAK proteins to full length CrkII/Grb2 and sub-domains were performed using a Biacore 8K+ Instrument (Cytiva) and analyzed using Biacore Insight Evaluation Software (v. 3.0.12.15655). […] Binding studies and steady-state data analysis were performed as described for CrkII^NSH3 with the inclusion of an additional surface regeneration step (60 s injection of 1 M NaCl) between cycles.

In experiment [8] the target is T6, CrkII^FL dimer (Homo sapiens, UniProt P46108).
T6 construct: full length CrkII (CrkII^FL; UniProt P46108-1, residues 1–330); 8-His tag with TEV protease cleavage site (N); made in house; host or cells: E. coli C41 (DE3)
T6 sequence (P46108 whole entry, the tested form may be a part): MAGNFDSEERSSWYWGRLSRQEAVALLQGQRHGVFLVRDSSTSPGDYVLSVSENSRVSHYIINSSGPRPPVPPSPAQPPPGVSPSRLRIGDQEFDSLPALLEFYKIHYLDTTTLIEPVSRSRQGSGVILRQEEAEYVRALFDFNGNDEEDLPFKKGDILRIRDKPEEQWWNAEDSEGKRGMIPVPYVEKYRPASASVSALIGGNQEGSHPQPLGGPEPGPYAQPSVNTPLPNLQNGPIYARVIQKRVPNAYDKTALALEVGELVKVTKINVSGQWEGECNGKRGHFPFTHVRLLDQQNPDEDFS
Kind of experiment: SPR, CrkII FL dimer binding to immobilised PEAK proteins. As to conditions: interactor as analyte over biotinylated PEAK protein (biotin CAPture); Biacore 8K+, HBS-TP with 500 mM NaCl, 20 °C; steady-state fit; mean ± SD (N = 2). On the procedure: as §2
SPR binding studies of PEAK proteins to full length CrkII/Grb2 and sub-domains were performed using a Biacore 8K+ Instrument (Cytiva) and analyzed using Biacore Insight Evaluation Software (v. 3.0.12.15655). […]

Experiment [9] addresses 14-3-3ɣ. Kind of experiment: SPR, 14-3-3ɣ binding to immobilised PEAK proteins. Conditions: 14-3-3ɣ analyte 0.46–1000 nM, multi-cycle, over immobilised biotinylated PEAK protein; Biacore 8K+, 20 °C; KD only an estimate (bivalent analyte model); N = 3. Further details: species or system human. On the procedure:
PEAK proteins and adapters proteins (full length or individual domains) were biotinylated using EZ-Link™ NHS-PEG4-Biotin (Thermo Fisher) at a 1:1 molar ratio (100 µM) for 1 h at room temperature, then excess biotin was removed by buffer exchange using a Zeba™ Spin Desalting Column (Thermo Fisher) into HBS-T buffer (20 mM HEPES pH 7.4, 150 mM NaCl, 1 mM TCEP).
SPR binding studies of PEAK proteins to full length CrkII/Grb2 and sub-domains were performed using a Biacore 8K+ Instrument (Cytiva) and analyzed using Biacore Insight Evaluation Software (v. 3.0.12.15655). […] Biotinylated PEAK proteins (with or without Src phosphorylation; 500 nM in HBS-TP) were immobilized using a biotin CAPture kit (Cytiva) in HBS-TP running buffer at 20 °C. Binding studies and steady-state data analysis were performed as described for CrkII^NSH3 with the inclusion of an additional surface regeneration step (60 s injection of 1 M NaCl) between cycles. For Grb2^FL, Grb2^SH2, CrkII^SH2, CrkII^FL monomer and CrkII^FL dimer, to reduce nonspecific interactions the HBS-TP running buffer was supplemented with additional NaCl to a final concentration of 500 mM.
Binding studies for 14-3-3ɣ were undertaken in the same way in multi cycle mode (8 point, 3-fold serial dilution series, 0.46–1000 nM, 60 s contact time, 300 s dissociation).

Experiment [10] concerns the target T7, CrkII^SH2 (Homo sapiens, UniProt P46108).
T7 construct: CrkII^SH2; UniProt P46108-1, residues 6–120; 8-His tag with TEV protease cleavage site (N); made in house; host or cells: E. coli C41 (DE3)
Kind of experiment: SPR, CrkII SH2 binding to immobilised PEAK proteins. As to conditions: interactor as analyte over biotinylated PEAK protein (biotin CAPture); Biacore 8K+, HBS-TP with 500 mM NaCl, 20 °C; steady-state fit; mean ± S.E.M. (N = 3). As to the method:
as §2, §3

Bounds are passed on as bounds.

T7 sequence (P46108 6-120): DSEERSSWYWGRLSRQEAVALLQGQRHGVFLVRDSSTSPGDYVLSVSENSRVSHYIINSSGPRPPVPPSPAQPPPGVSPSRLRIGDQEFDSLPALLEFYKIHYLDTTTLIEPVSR

Consider `CC[C@H](C)[C@H](NC(=O)[C@H](CCSC)NC(=O)[C@H](CCCCN)NC(=O)[C@H](CCCCN)NC(=O)[C@@H]1CCCN1C(=O)[C@H](CC(C)C)NC(=O)[C@@H]1CCCN1C(=O)[C@@H]1CCCN1C(=O)[C@@H]1CCCN1C(C)=O)C(=O)N[C@H](C(=O)N[C@@H](CCCNC(=N)N)C(=O)N[C@@H](C)C(=O)N[C@@H](CC(N)=O)C(=O)N[C@H](C(=O)N[C@@H](CCC(=O)O)C(=O)N1CCC[C@H]1C(=O)N[C@H](C(=O)N[C@@H](CO)C(=O)N[C@@H](CCCCN)C(=O)N[C@@H](CC(=O)O)C(N)=O)[C@@H](C)CC)[C@@H](C)O)[C@@H](C)CC` (single isomer, unassigned) [PEAK1^tandem], for which the Kd in experiment [1], in [2], in experiment [3] and in [4] was above 100 µM in each case.
For `CC[C@H](C)[C@H](NC(=O)[C@H](CCCCN)NC(=O)[C@H](CCCCN)NC(=O)[C@H](CCC(N)=O)NC(=O)[C@@H]1CCCN1C(=O)[C@H](CC(C)C)NC(=O)[C@@H]1CCCN1C(=O)[C@@H]1CCCN1C(=O)[C@@H]1CCCN1C(C)=O)C(=O)N[C@H](C(=O)N[C@@H](CO)C(=O)N[C@@H](CCCNC(=N)N)C(=O)N[C@@H](C)C(=O)N[C@@H](C)C(=O)N[C@@H](CO)C(=O)N[C@@H](CO)C(=O)N1CCC[C@H]1C(=O)N[C@@H](CC(=O)O)C(=O)NCC(=O)N[C@@H](Cc1ccccc1)C(N)=O)C(C)C` (single isomer, unassigned) [PEAK2^tandem], the Kd in experiment [1], in experiment [2], in experiment [3] and in experiment [4] was above 100 µM each time.
Consider `CC(=O)N[C@H](C(=O)N[C@@H](Cc1ccc(OP(=O)(O)O)cc1)C(=O)N[C@@H](CO)C(=O)N[C@@H](CC(N)=O)C(=O)N[C@@H](CC(C)C)C(=O)NCC(=O)N[C@@H](CCC(N)=O)C(N)=O)[C@@H](C)O` [SH2-pY peptide], for which the Kd in [5] is 2.6 µM.
As to `Cc1nc(Nc2ncc(C(=O)Nc3c(C)cccc3Cl)s2)cc(N2CCN(CCO)CC2)n1` [dasatanib], the “phosphorylation of PEAK3 at the TYSNL (pY24) site” value in [6] is “blocked”.
On to `COc1cc(-c2nn(CCN3CCC(N(C)C)CC3)c3ncnc(N)c23)ccc1NC(=O)OC(C)(C)C` [eCF506], for which, in experiment [6], the “phosphorylation of PEAK3 at the TYSNL (pY24) site” value was “blocked”.
As for “PEAK3-FL (+ Src phosphorylation): insect cell PEAK3 (1–473) phosphorylated with recombinant Src kinase”, the values for the Kd in experiment [7], in experiment [8] and in experiment [9] were 6.84 µM, 2.18 µM and below 1 µM, respectively.
As for “PEAK3-FL: full length human PEAK3 (1–473) from insect cells, S69 phosphorylated, purified as 14-3-3 complex”, the Kd in [7] turned out to be 3.87 µM. Besides, in experiment [10], the “SPR KD, CrkII-SH2” value is listed as “No binding”. In experiment [9], the Kd is below 1 µM and the “SPR KD, 14-3-3ɣ” value is recorded as “bound strongly”.

The values are drawn from PMC10279719 (Nature Communications, 2023).
